Measured values from EP0492113A2, “Herbicide resistant AHAS deletion mutants” (priority 1990, dated 1992).
Values joined by “and” are separate entries in the source; they are usually repeats but may differ in a detail not shown here. Equal values may be shown once.

Columns and labels:
0 x 10-1 = test: Tobacco seed assay on herbicide medium, 0 x 10-1; format: in vivo; details: 5 µM in medium; twenty seeds per dish; after three weeks
Procedure: (§1) Seeds resulting from transgenic plant 10-1 are also assayed for resistance to the imidazolinone Pursuit®. Seeds are plated onto medium containing Pursuit® at 0, 1.25, 2.5, 3.75, and 5.0 µM. Twenty seeds are plated per petri dish, with two dishes per treatment. Herbicide tolerance of seedlings is evaluated after three weeks. […]

[1] = biological target: T1, Wild type Arabidopsis AHAS (Arabidopsis thaliana, UniProt P17597); test: AHAS enzyme assay (expression in E. coli MF2000), wild type enzyme; format: biochemical; details: wild type (pAC201); Figures 4 and 5
T1 construct: made in house; host or cells: E. coli MF2000 (no endogenous AHAS), vector pKK233-2; ammonium sulfate fraction of the extract
T1 sequence (P17597 56-670): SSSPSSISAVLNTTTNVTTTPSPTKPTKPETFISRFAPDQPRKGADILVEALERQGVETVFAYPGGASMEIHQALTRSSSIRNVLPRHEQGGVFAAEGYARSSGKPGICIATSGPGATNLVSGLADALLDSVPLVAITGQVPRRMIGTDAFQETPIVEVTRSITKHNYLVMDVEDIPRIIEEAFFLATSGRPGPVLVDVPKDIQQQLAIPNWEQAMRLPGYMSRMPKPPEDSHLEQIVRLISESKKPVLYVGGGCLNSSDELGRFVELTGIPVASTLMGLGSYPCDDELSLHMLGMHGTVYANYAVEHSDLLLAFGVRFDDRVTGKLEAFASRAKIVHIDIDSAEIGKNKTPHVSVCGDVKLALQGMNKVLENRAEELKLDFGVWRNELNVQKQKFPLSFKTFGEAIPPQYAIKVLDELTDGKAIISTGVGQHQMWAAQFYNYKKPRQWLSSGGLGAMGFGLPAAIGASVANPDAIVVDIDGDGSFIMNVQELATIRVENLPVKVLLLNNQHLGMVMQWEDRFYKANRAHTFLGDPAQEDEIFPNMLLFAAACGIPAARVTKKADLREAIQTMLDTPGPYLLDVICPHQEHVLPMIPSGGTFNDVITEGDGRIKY
Procedure: AHAS enzyme assay (expression in E. coli) - The site directed mutants, pAC224 and pAC225, are utilized as templates for the generation of an E. coli based expression system. The insensitivity to herbicide is tested when the higher plant gene of interest is expressed in a bacterial strain devoid of any endogenous AHAS activity. To this end, the Nco1/Pst1 fragment of wild type Arabidopsis AHAS (pAC301), the Trp574-Leu substitution (pAC224) and the Trp574 deletion (pAC225) are subcloned into the Nco1/Pst1 site of the E. coli expression vector, pKK233-2 (purchased from Pharmacia). This expression plasmid contains an IPTG inducible promoter as well as a transcription termination sequence. Both regions surround an Nco1, HindIII and Pstl linker sequence that allows proper orientation of the gene of interest in relation to the bacterial promoter. Subcloning and ligation of the respective Ncol/Pstl fragments into Ncol/Pstl digested pKK233-2 DNA (ampicillin resistance) is as previously described. […] This bacterial strain is devoid of endogenous AHAS activity. Therefore, growth on a minimal media lacking isoleucine and valine (the end products of amino acid biosynthetic pathway of which the AHAS enzyme is involved) in an MF2000 strain transformed with either pAC224 (Trp574-Leu) or pAC225 (Trp del) requires the expression and function of the Arabidopsis gene in E. coli. […]

10-1 x 0 = test: Tobacco seed assay on herbicide medium, 10-1 x 0; format: in vivo; details: 5 µM in medium; twenty seeds per dish; after three weeks
Procedure: as §1

[2] = tested on: selfed progeny of the transgenic tobacco plant (10-1) containing the Trp574 deletion mutation of Arabidopsis AHAS; test: Postemergence spray of tobacco, selfed progeny of transgenic plant 10-1; format: in vivo; details: for plant growth: 25 days after spraying, Figure 2(a); for Tobacco Mean FW: (5 reps each): Transgenic Progeny, four and one-half weeks
Excerpt: (§2) All three photographs were taken 25 days after spraying. In all photographs, control plants (a wild-type herbicide sensitive tobacco cultivar, Wisconsin 38[W38]) are in the front row. • (a) W38 Control and 10-1 Self - W38 represents the control and 10-1 the selfed transgenic tobacco progeny. At 0 g/ha Pursuit®, both the W38 and the 10-1 look similar. […] 0 x 10-1 represents W38 as the maternal parent (0) and 10-1 as the paternal parent. The results are very similar to that seen in the 10-1 selfed photograph. • (c) W38 Control and 10-1 x 0 - W38 as previously described. 10-1 x 0 represents 10-1 as the maternal parent and W38 as the paternal parent (0). The results are very similar to that seen in the 10-1 selfed photograph except that in this photo segregation of the herbicide resistance trait can be seen in the 10-1 progeny.
(§3) In a more quantitative assay, seed of selfed progeny of the transgenic tobacco plant (10-1) containing the Trp574 deletion mutation of Arabidopsis AHAS as well as seeds of the susceptible parental cultivar "Wisconsin 38" are planted in Metro Mix 350™ in 5" Azalea pots. The seedlings are thinned to the single most vigorous seedling after 2 days. Eleven days later, these plants are sprayed postemergence with Pursuit® at 0, 10, 20, 40, 80 and 160 g/ha. Five plants of each tobacco type (transgenic and control) are sprayed per herbicide rate. Tween 20™ is added at 0.25 v/v to the herbicide solutions prior to spraying. The herbicide is applied with a laboratory belt sprayer at a rate of 400 L/ha at a distance 18" above the plants with a belt speed of 8.2 sec/rev and sprayer nozzle #65015E. Plant heights are measured 1, 2, 3, and 4 weeks after treatment, plant fresh weight data is collected at four and one-half weeks.

[3] = tested on: Wisconsin 38[W38] wild-type herbicide sensitive tobacco cultivar; test: Postemergence spray of tobacco, susceptible control; format: in vivo; details: for plant growth: 25 days after spraying, Figure 2(a); for Tobacco Mean FW: (5 reps each): Control, four and one-half weeks
Excerpt: as §2, §3

[4] = biological target: T2, AHAS produced by substitution of asparagine for serine at position 653 (pAC229) (Arabidopsis thaliana, UniProt P17597, S653N); format: biochemical; details: Ser653 to asparagine substitution; Figure 6
T2 construct: made in house; host or cells: E. coli MF2000
T2 sequence (P17597 56-670 S653N): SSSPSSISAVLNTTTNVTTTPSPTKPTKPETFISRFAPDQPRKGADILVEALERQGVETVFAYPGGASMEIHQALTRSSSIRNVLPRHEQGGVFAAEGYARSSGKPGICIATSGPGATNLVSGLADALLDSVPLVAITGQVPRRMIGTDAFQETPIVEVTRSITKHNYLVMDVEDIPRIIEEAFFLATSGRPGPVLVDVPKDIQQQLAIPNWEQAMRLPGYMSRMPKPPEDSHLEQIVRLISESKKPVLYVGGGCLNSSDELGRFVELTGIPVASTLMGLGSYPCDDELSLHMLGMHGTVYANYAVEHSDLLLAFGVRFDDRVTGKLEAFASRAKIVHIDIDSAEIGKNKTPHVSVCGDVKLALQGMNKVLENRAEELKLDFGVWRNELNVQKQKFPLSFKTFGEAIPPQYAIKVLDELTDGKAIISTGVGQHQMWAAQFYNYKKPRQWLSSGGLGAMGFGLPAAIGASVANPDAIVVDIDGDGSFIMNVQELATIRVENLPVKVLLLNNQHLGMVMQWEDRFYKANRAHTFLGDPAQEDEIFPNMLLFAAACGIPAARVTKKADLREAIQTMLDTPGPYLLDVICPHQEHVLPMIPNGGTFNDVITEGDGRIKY

CCc1cnc(C2=NC(C)(C(C)C)C(=O)N2)c(C(=O)O)c1 (stereo not shown) [Pursuit®]
D (Damaged), number of seedlings per dish (0 x 10-1): 9 and 8
R (Resistant), number of seedlings per dish (0 x 10-1): 0
S (Susceptible), number of seedlings per dish (0 x 10-1): 10 and 8
sensitivity of AHAS enzyme to herbicide [1]: sensitive
D (Damaged), number of seedlings per dish (10-1 x 0): 9
R (Resistant), number of seedlings per dish (10-1 x 0): 0
S (Susceptible), number of seedlings per dish (10-1 x 0): 11
plant growth ([2]; 80 g/ha post-emergence): slightly inhibited
plant growth ([2]; 160 g/ha post-emergence): clearly inhibited
Tobacco Mean FW: (5 reps each) ([2]; 10 g/ha postemergence): 36.4 g
Tobacco Mean FW: (5 reps each) ([2]; 20 g/ha postemergence): 28.8 g
Tobacco Mean FW: (5 reps each) ([2]; 40 g/ha postemergence): 20.9 g
Tobacco Mean FW: (5 reps each) ([2]; 80 g/ha postemergence): 26.5 g
Tobacco Mean FW: (5 reps each) ([2]; 160 g/ha postemergence): 21.4 g
tolerance to post-emergence applications, relative to the concentration lethal to control tobacco plants ([2]; progeny from 10-1): 4-8 x
herbicide tolerance, applied postemergence ([2]; rates 10 to 160 g/ha): high degree of tolerance
plant growth ([3]; 10 g/ha post-emergence, compared to 10-1): slightly inhibited
Tobacco Mean FW: (5 reps each) ([3]; 10 g/ha postemergence): 8.1 g
Tobacco Mean FW: (5 reps each) ([3]; 20 g/ha postemergence): 2.0 g
Tobacco Mean FW: (5 reps each) ([3]; 40 g/ha postemergence): 0.8 g
Tobacco Mean FW: (5 reps each) ([3]; 80 g/ha postemergence): 0.6 g
Tobacco Mean FW: (5 reps each) ([3]; 160 g/ha postemergence): 0.2 g
herbicide tolerance, applied postemergence ([3]; any of the rates tested (10 to 160 g/ha)): does not display herbicide tolerance
plant growth ([3]; starting at 20 g/ha post-emergence): almost completely inhibited
sensitivity of AHAS enzyme to herbicide [4]: insensitive to inhibition
